Assay results reported in paper PMC8619673 (Cells, 2021).

Columns and labels:
Assay type in all cases: cell-based, Human
Aβ-GFP SH-SY5Y cells = assay: Aβ-GFP fluorescence (Aβ-GFP folding reporter); settings: 1–5 μM, normalized with cell number, day 8
Experimental: To induce neuronal differentiation, 2 × 10^4 Aβ-GFP SH-SY5Y cells were seeded on a 96-well plate with retinoic acid (10 µM; Sigma-Aldrich). Cells were pretreated with tested compounds (0.2–5 µM) on day 2 for 8 h and then with doxycycline (5 μg/mL) to induce Aβ-GFP expression. Medium containing retinoic acid compound and doxycycline was refreshed every 2 days for 6 days. Then, cells were stained with Hoechst 33342 (0.1 µg/mL; Sigma-Aldrich) at 37 °C for 30 min. Cell images were recorded at 482/35 nm excitation and 536/40 nm emission wavelengths (ImageXpres Micro Confocal High-Content Imaging System; Molecular Devices, Sunnyvale, CA, USA), and analyzed by MetaXpress (Molecular Devices).

Aβ-GFP RNA = assay: Real-time PCR of Aβ-GFP RNA; settings: 5 μM; untreated 28.6; not significantly affected
Excerpt: RNA was extracted using TRIzol reagent (Invitrogen, Carlsbad, CA, USA), followed by treatment with DNase I (Stratagene, La Jolla, CA, USA). cDNA was synthesized by SuperScript™ III reverse transcriptase (Invitrogen) according to manufacturer’s instruction and used to determine Aβ-GFP mRNA expression by StepOnePlus™ Real-time PCR system (Applied Biosystems, Foster City, CA, USA) using customized GFP primers (forward primer: 5′-[…]-3′, reverse primer: 5′-[…]-3′), FAM/NFQ probe (5′-[…]-3′), and TaqMan hypoxanthine phosphoribosyltransferase 1 (HPRT1) endogenous control (VIC/MGB probe, 4326321E) (Applied Biosystems). Fold change was calculated using the formula 2^ΔCt, ΔCT = CT (HPRT1)—CT (GFP), in which CT indicates the number of threshold cycles.

TRKB = assay: Western blot, TRKB and p-TRKB; settings: 5 µM; for p-TRKB (Y516) protein level relative to uninduced cells (100%): induced untreated 40%; for p-TRKB (Y817) protein level relative to uninduced cells (100%): induced untreated 71%; for TRKB expression relative to uninduced cells (100%): scrambled shRNA-infected Aβ-expressing cells, untreated 80%
Experimental: (§1) Cellular proteins were prepared using a lysis buffer containing NaCl (150 mM), ethylene diamine tetraacetic acid (EDTA, 1 mM, pH8.0), Tris-HCl (50 mM, pH8.0), ethylene glycol tetraacetic acid (EGTA, 1 mM, pH8.0), sodium dodecyl sulfate (SDS, 0.1%), sodium deoxycholate (SD, 0.5%), Triton X-100 (1%), and protease (Sigma-Aldrich), and phosphatase (Abcam, Cambridge, MA, USA) inhibitor cocktails. After quantitation by protein assay kit (Bio-Rad, Hercules, CA, USA), 20 µg proteins were separated by SDS-polyacrylamide (10%) gel electrophoresis and transferred to polyvinylidene difluoride (PVDF) membranes (Sigma-Aldrich) using a Mini Trans-Blot cell (Bio-Rad). After blocking, the membrane was probed with anti-TRKB, anti-p-TRKB (Y516), anti-p-TRKB (Y817) (1:500; Cell Signaling, Danvers, MA, USA), anti-ERK, anti-p-ERK (T202/Y204) (1:1000; Cell Signaling), anti-AKT, anti-p-AKT (S473) (1:1000; Cell Signaling), anti-CREB, anti-p-CREB (S133) (1:1000; Millipore, Billerica, MA, USA), anti-BDNF, anti-BCL2 (1:500; Santa Cruz Biotechnology, Santa Cruz, CA, USA), anti-BAX (1:1000; Cell Signaling), anti-β-tubulin (1:500; Sigma-Aldrich), or anti-GAPDH (1:1000, MDBio, Taipei, Taiwan) antibody. The immune complexes were detected using goat anti-mouse or goat anti-rabbit IgG antibody conjugated with horseradish peroxidase (1:5000; GeneTex, Irvine, CA, USA) and chemiluminescent substrate (Millipore).
Lentiviral short hairpin RNA (shRNA) targeting TRKB (TRCN0000002243, TRCN0000002245, and TRCN0000002246) and a negative-scrambled control (TRC2.Void) were obtained from the National RNAi Core Facility, IMB/GRC, Academia Sinica (Taipei, Taiwan). As described, cells were plated on 6- or 24-well plates, with retinoic acid added on day 1. Cells were infected with lentivirus (multiplicity of infection, 3 for each shRNA), with polybrene (8 µg/mL; Sigma-Aldrich) on the next day. Cells were pretreated with tested compounds (5 µM) for 8 h after changing medium, followed by doxycycline on day 3. Cells were collected for further analysis on day 9. The hairpin sequences of targeting shRNA were below: • TRCN0000002243: 5’-[…]ctcgag[…]-3’ • TRCN0000002245: 5’-[…]ctcgagATGTT-[…]-3’ • TRCN0000002246: 5’-[…]ctcgag[…]-3’ • TRC2.Void: 5’-[…]ctcgag[…]-3’

BDNF = assay: Western blot, BDNF; settings: 5 µM; for BDNF 14 kDa protein level relative to uninduced cells (100%): induced untreated 42%; for BDNF 32 kDa protein level relative to uninduced cells (100%): induced untreated 88%
Experimental: as §1

BCL2 = assay: Western blot, BCL2; settings: 5 µM; induced untreated 72%
Experimental: as §1

Compound | GFP fluorescence intensity relative to untreated cells (100%) (Aβ-GFP SH-SY5Y cells) | Relative Aβ-GFP/HPRT1 RNA level (Aβ-GFP RNA) | p-TRKB (Y516) protein level relative to uninduced cells (100%) (TRKB) | p-TRKB (Y817) protein level relative to uninduced cells (100%) (TRKB) | TRKB expression relative to uninduced cells (100%) (TRKB) | BDNF 14 kDa protein level relative to uninduced cells (100%) (BDNF) | BDNF 32 kDa protein level relative to uninduced cells (100%) (BDNF) | BCL2 protein level relative to uninduced cells (100%) (BCL2)
CCOC(=O)c1cc2c(O)cccc2oc1=O [ZN014, ethyl 5-hydroxy-2-oxo-2H-chromene-3-carboxylate] | 111–119% | 29.2–30.0 folds of induction | 92–100% | 94–108% | 77–81% | 124–140% | 113–119% | 104–116%
O=C(/C=C/c1ccccc1O)c1c(O)c2ccccc2oc1=O [ZN015, (E)-4-hydroxy-3-(3-(2-hydroxyphenyl)acryloyl)-2H-chromen-2-one] | 113–125% | 29.2–30.0 folds of induction | 92–100% | 94–108% | 77–81% | 124–140% | 113–119% | 104–116%
